The text below walks through data of patent US20150246087A1, “EXTRACTS AND THERAPEUTIC USES THEREOF” (REGENERA PHARMA LTD., priority 2012, published 2015).

Data set [1] concerns 3T3 cells. Nature of the data set: Cytotoxicity in 3T3 cells (XTT kit). It is filed as cell-based. The following applies: DMSO 10% control; 48 hr; single well of triplicate. On the procedure: 3T3 cells (ATCC; CRL-1658) were seeded in a 96 well plate (4×10^3 cells per well), and 24 hr following cell adherence, cells were treated (in triplicate) with different concentrations (1-50 mg/ml) of the test items, or with the control items cottonseed oil alone, or 10% DMSO, or were left untreated. All treatments were introduced in a final volume of […] within a total volume of 100 μl/well. Cytotoxicity was determined 48 hr after additional of test items, using the XTT kit (Biological industries, Israel). Raw data was analyzed using Prism4 statistical software following blank reduction. The cottonseed oil vehicle treated control was used to calculate 100% viability and OD % was calculated.

Data set [2] has as its system ARPE-19 cells. Put plainly: Neuronal-like differentiation of ARPE-19 retinal pigment epithelial cell cultures. It is filed as cell-based, human. The note with it: 2-10% w/w in cottonseed oil, compared to vehicle control. As for the experimental part:
ARPE-19 cells (obtained from the American Type Culture Collection, ATCC) were plated in flat bottom 96 well tissue culture microplates (Costar) at a concentration of 2-5×10^3 cells per well (1-2.5×10^4 cells/mL) in a growth medium consisting of DMEM:Ham F-12, 1:1, supplemented with 10% Fetal Bovine Serum, […] glutamine, 100 units/mL penicillin and 100 μg/mL streptomycin. The cells were allowed to adhere to the plate surfaces overnight prior to treatment with either RPh-CY or RPh-SA.
RPh-CY and RPh-SA were prepared essentially as described in Examples 2 and 4 respectively, to provide 10% solutions in a carrier composed of grape seed oil, olive oil, cottonseed oil, and Mygliol® (Mygliol® 810 or Mygliol® 812). […]
The cultures were incubated in a 37° C., 5% CO2 incubator for 48 hr. The medium was then removed, the cultures washed twice with phosphate buffered saline (PBS), fixed with absolute methanol for 10 min and stained with Hemacolor® reagents (Boehringer Mannheim), which stain cells in a manner similar to Giemsa, and may be used in a quantitative cell viability assay (see Keisari, Y. A colorimetric microtiter assay for the quantitation of cytokine activity on adherent cells in tissue culture. J. Immunol. Methods 146, 155-161, 1992). […]

“And” between values parts separate entries of the source, which are not always exact repeats. Equal entries are not always repeated.

Consider `C[S+](C)[O-]` [DMSO], for which the “OD at 450 (XTT)” value in data set [1] is 0.238 and 0.233 and 0.234.
`CC(C)c1c(O)ccc2c1CC[C@H]1C(C)(C)CCC[C@]21C` [totarol]: in data set [2], the “change in ARPE-19 RPE cells (neurodifferentiation assay)” value is listed as “induced no change”.
